Numbered stars: 1 amine (or outer) side, 2 acyl side, 3 side chain; on linkers, the order of the positions; unused ones are H or OH. Bridge positions count the residues as written; N and C are the ends. Square brackets hold non-standard residues; d marks the D form. Peptide text beside a SMILES is read from it. * marks the point of attachment. 2Thenoyl(5-Cl) = O=C(c1ccc(Cl)s1)*; Cysteamide = C(CS[*:3])N[*:1]; Orn = NCCC[CH](N)C(=O)O; Mpa = O=C(O)CCS
Biological target: T1, thrombin (Homo sapiens, UniProt P00734)
T1 construct: consists of two polypeptide chains of 36 (light chain) and 259 amino acid
Assay: Thrombin inhibition screen of crude macrocycle reactions (residual thrombin activity, fluorogenic substrate Z-Gly-Gly-Arg-AMC)
Type: biochemical
Conditions: 10 µM macrocycle concentration, macrocycles containing acid 14, crude reaction; for % thrombin activity, Repeat screen: replicate reaction and screen
Procedure, shortened: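 Each crude macrocycle (10 μM) was preincubated 10 min at room temperature with thrombin (2 nM final) in Tris-Cl pH 7.4 containing NaCl, MgCl2, CaCl2, 0.1% BSA, 0.01% Triton X-100 and 0.6% DMSO. Z-Gly-Gly-Arg-AMC (50 μM final) was then added. Inhibition came from fluorescence slopes relative to DMSO-only controls.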

| SMILES | % thrombin activity, Original screen [%] | % thrombin activity, Repeat screen [%] | other results |
| --- | --- | --- | --- |
| CCC(C)C1NC(=O)C(CNC(=O)c2ccc(Cl)s2)NC(=O)C2CCCN(C2)C(=O)CCSSCCNC1=O (centres unmarked) [X B4 D3 I] | 64.0 | 61.8 | – |
| CC(C)[C@@H]1NC(=O)[C@H](CNC(=O)c2ccc(Cl)s2)NC(=O)[C@H]2CCCN(C2)C(=O)CCSSCCNC1=O [X B4 D3 V] | 62.4 | 58.2 | – |
| O=C1NC2(CCN(C(=O)c3ccc(Cl)s3)CC2)C(=O)N[C@@H](CO)C(=O)NCCSSCCC(=O)N2CCC[C@H]1C2 [X B4 D6 S] | 87.7 | 85.3 | – |
| CC(C)C[C@@H]1NC(=O)[C@H]2CCCN(C2)C(=O)CCSSCCNC(=O)[C@@H](CNC(=O)c2ccc(Cl)s2)NC1=O [X B4 L D4] | 97.0 | 93.7 | – |
| O=C(NCCCC[C@@H]1NC(=O)[C@H](Cc2c[nH]c3ccccc23)NC(=O)[C@H]2CCCN(C2)C(=O)CCSSCCNC1=O)c1ccc(Cl)s1 [X B4 W D1] | 84.9 | 86.6 | % thrombin activity, Original screen (listed as X B4 w D1): 105.6%; % thrombin activity, Repeat screen (listed as X B4 w D1): 113.0% |
| CC[C@H](C)[C@@H]1NC(=O)[C@H](CCCNC(=O)c2ccc(Cl)s2)NC(=O)c2cccc(c2)CNC(=O)CCSSCCNC1=O [X B5 D2 I] | 86.0 | 83.0 | – |
| O=C1CCSSCCNC(=O)C(Cc2ccccc2)NC(=O)C2CC(NC(=O)c3ccc(Cl)s3)CN2C(=O)c2cccc(c2)CN1 (centres unmarked) [X B5 D5 f] | 91.3 | 95.8 | – |
| O=C1CCSSCCNC(=O)[C@H](CCCNC(=O)c2ccc(Cl)s2)NC(=O)[C@H](Cc2ccccc2)NC(=O)c2cccc(c2)CN1 [X B5 F D2] | 81.9 | 80.4 | – |
| NC(=O)CC[C@@H]1NC(=O)c2cccc(c2)CNC(=O)CCSSCCNC(=O)[C@H](CNC(=O)c2ccc(Cl)s2)NC1=O [X B5 Q D3] | 95.3 | 96.2 | – |
| O=C1CCSSCCNC(=O)C(CCCCNC(=O)c2ccc(Cl)s2)NC(=O)C(CO)NC(=O)c2cccc(c2)CN1 (centres unmarked) [X B5 S D1] | 96.4 | 100.5 | – |
| O=C1CCSSCCNC(=O)[C@H](Cc2c[nH]c3ccccc23)NC(=O)[C@H](CCCNC(=O)c2ccc(Cl)s2)NC(=O)C2(CC2)CN1 [X B6 D2 W] | 87.3 | 88.9 | – |
| O=C1CCSSCCNC(=O)C(Cc2c[nH]c3ccccc23)NC(=O)C(CNC(=O)c2ccc(Cl)s2)NC(=O)C2(CC2)CN1 (centres unmarked) [X B6 D3 w] | 92.5 | 95.8 | – |
| NC(=O)CCC1NC(=O)C2CC(NC(=O)c3ccc(Cl)s3)CN2C(=O)C2(CC2)CNC(=O)CCSSCCNC1=O (centres unmarked) [X B6 D5 Q] | 109.4 | 121.6 | – |
| CC(C)C[C@@H]1NC(=O)C2(CC2)CNC(=O)CCSSCCNC(=O)[C@H](CCCNC(=O)c2ccc(Cl)s2)NC1=O [X B6 L D2] | 60.0 | 43.4 | – |
| O=C1CCSSCCNC(=O)[C@H](CNC(=O)c2ccc(Cl)s2)NC(=O)[C@H](Cc2ccc(O)cc2)NC(=O)C2(CC2)CN1 [X B6 Y D3] | 68.6 | 63.8 | – |
| O=C1CCSSCCNC(=O)[C@@H](CNC(=O)c2ccc(Cl)s2)NC(=O)[C@@H](Cc2c[nH]c3ccccc23)NC(=O)C2(CC2)CN1 [X B6 w D4] | 102.8 | 106.2 | – |
| O=C1CCSSCCNC(=O)[C@H]2CCCN(C2)C(=O)[C@H](Cc2ccccc2)NC(=O)[C@H](CCCCNC(=O)c2ccc(Cl)s2)N1 [X D1 F B4] | 99.6 | 102.4 | – |
| O=C1CCSSCCNC(=O)C2(CC2)CNC(=O)[C@H](Cc2c[nH]cn2)NC(=O)[C@H](CCCCNC(=O)c2ccc(Cl)s2)N1 [X D1 H B6] | 105.8 | 107.1 | – |
| NC(=O)CCC1NC(=O)C(CCCCNC(=O)c2ccc(Cl)s2)NC(=O)CCSSCCNC(=O)C2CCCN2C1=O (centres unmarked) [X D1 Q B1] ([Mpa]K(2Thenoyl(5-Cl))QP-Cysteamide; disulfide 1-C; configuration not given here) | 102.2 | 105.2 | – |
| O=C1CCSSCCNC(=O)C2(CC2)CNC(=O)[C@H](CO)NC(=O)[C@H](CCCCNC(=O)c2ccc(Cl)s2)N1 [X D1 S B6] | 97.6 | 98.2 | – |
| CC[C@H](C)[C@@H]1NC(=O)CCNC(=O)[C@H](CCCNC(=O)c2ccc(Cl)s2)NC(=O)CCSSCCNC1=O [X D2 B2 I] | 101.0 | 92.2 | – |
| O=C1CCSSCCNC(=O)[C@H](Cc2cnc[nH]2)NC(=O)c2cccc(c2)CNC(=O)[C@H](CCCNC(=O)c2ccc(Cl)s2)N1 [X D2 B5 H] | 93.0 | 94.7 | – |
| O=C1CCSSCCNC(=O)c2cccc(c2)CNC(=O)[C@H](Cc2ccccc2)NC(=O)[C@H](CCCNC(=O)c2ccc(Cl)s2)N1 [X D2 F B5] | 95.3 | 93.4 | – |
| CC[C@H](C)[C@@H]1NC(=O)[C@H](CCCNC(=O)c2ccc(Cl)s2)NC(=O)CCSSCCNC(=O)CCNC1=O [X D2 I B2] | 94.1 | 96.8 | – |
| O=C1CCNC(=O)[C@H](CO)NC(=O)[C@H](CCCNC(=O)c2ccc(Cl)s2)NC(=O)CCSSCCN1 [X D2 S B2] | 105.4 | 107.4 | – |

Continued, in another order:

| % thrombin activity, Original screen [%] | % thrombin activity, Repeat screen [%] | SMILES | other results |
| --- | --- | --- | --- |
| 93.8 | 99.5 | NC(=O)CC[C@@H]1NC(=O)[C@H]2CCCN(C2)C(=O)CCSSCCNC(=O)C2(CCN(C(=O)c3ccc(Cl)s3)CC2)NC1=O [X B4 Q D6] | – |
| 104.5 | 106.7 | O=C(NC[C@H]1NC(=O)[C@@H](CO)NC(=O)[C@H]2CCCN(C2)C(=O)CCSSCCNC1=O)c1ccc(Cl)s1 [X B4 s D4] | – |
| 112.0 | 122.3 | O=C1CCSSCCNC(=O)C(Cc2c[nH]c3ccccc23)NC(=O)C2CC(NC(=O)c3ccc(Cl)s3)CN2C(=O)c2cccc(c2)CN1 (centres unmarked) [X B5 D5 w] | – |
| 54.9 | 55.7 | NC(=O)CC[C@@H]1NC(=O)C2(CCN(C(=O)c3ccc(Cl)s3)CC2)NC(=O)c2cccc(c2)CNC(=O)CCSSCCNC1=O [X B5 D6 Q] | – |
| 86.2 | 89.2 | C[C@H]1NC(=O)C2(CCN(C(=O)c3ccc(Cl)s3)CC2)NC(=O)c2cccc(c2)CNC(=O)CCSSCCNC1=O [X B5 D6 a] | – |
| 107.3 | 102.8 | CC(C)CC1NC(=O)C(CCCNC(=O)c2ccc(Cl)s2)NC(=O)C2(CC2)CNC(=O)CCSSCCNC1=O (centres unmarked) [X B6 D2 L] | – |
| 70.7 | 68.6 | O=C1CCSSCCNC(=O)[C@H](Cc2ccccc2)NC(=O)[C@H](CNC(=O)c2ccc(Cl)s2)NC(=O)C2(CC2)CN1 [X B6 D3 F] | – |
| 99.3 | 95.8 | NC(=O)CC[C@@H]1NC(=O)C2(CC2)CNC(=O)CCSSCCNC(=O)[C@H](CCCNC(=O)c2ccc(Cl)s2)NC1=O [X B6 Q D2] | – |
| 49.0 | 42.0 | O=C1CCSSCCNC(=O)[C@H](CNC(=O)c2ccc(Cl)s2)NC(=O)[C@@H](Cc2ccccc2)NC(=O)C2(CC2)CN1 [X B6 f D3] | – |
| 96.4 | 103.7 | C[C@H]1NC(=O)[C@@H]2CCCN2C(=O)[C@H](CCCCNC(=O)c2ccc(Cl)s2)NC(=O)CCSSCCNC1=O [X D1 B1 a] ([Mpa]K(2Thenoyl(5-Cl))P[dA]-Cysteamide; disulfide 1-C) | – |
| 99.2 | 103.2 | O=C1CCSSCCNC(=O)C(CO)NC(=O)c2ccc(cc2)CNC(=O)C(CCCCNC(=O)c2ccc(Cl)s2)N1 (centres unmarked) [X D1 B3 S] | – |
| 99.9 | 100.1 | O=C1CCSSCCNC(=O)[C@@H](Cc2ccc(O)cc2)NC(=O)[C@H]2CCCN(C2)C(=O)[C@H](CCCCNC(=O)c2ccc(Cl)s2)N1 [X D1 B4 y] | – |
| 91.0 | 93.6 | CCC(C)C1NC(=O)C(CCCCNC(=O)c2ccc(Cl)s2)NC(=O)CCSSCCNC(=O)C2(CC2)CNC1=O (centres unmarked) [X D1 I B6] | – |
| 78.2 | 66.2 | O=C1CCSSCCNC(=O)[C@H](Cc2ccc(O)cc2)NC(=O)c2cccc(c2)CNC(=O)[C@H](CCCNC(=O)c2ccc(Cl)s2)N1 [X D2 B5 Y] | % thrombin activity, Original screen (listed as X D2 B5 y): 82.3%; % thrombin activity, Repeat screen (listed as X D2 B5 y): 75.1% |
| 96.9 | 90.4 | CCC(C)C1NC(=O)C(CCCNC(=O)c2ccc(Cl)s2)NC(=O)CCSSCCNC(=O)C2CCCN2C1=O (centres unmarked) [X D2 I B1] ([Mpa][Orn](2Thenoyl(5-Cl))IP-Cysteamide; disulfide 1-C; configuration not given here) | – |
| 98.3 | 94.7 | CC(C)C[C@@H]1NC(=O)[C@H](CCCNC(=O)c2ccc(Cl)s2)NC(=O)CCSSCCNC(=O)[C@H]2CCCN(C2)C1=O [X D2 L B4] | – |
